Measured values taken from US10138212B2, “Aminoquinazoline compounds as A2A antagonist” (Merck Sharp & Dohme Corp., priority 2015, dated 2018).

Key:
human A1 receptor = human A1 receptor (Homo sapiens (Human), UniProt P30542); test: A1 competition binding assay using Scintillation Proximity technology; selectivity = A1 binding Ki / A2a binding Ki; conditions: A1 binding Ki divided by A2a binding Ki
Protocol: (§1) Binding affinities of compounds of the invention for the human A1 receptor were determined in a competition binding assay using Scintillation Proximity technology. Thus, 5 of membranes from CHO-K1 cells expressing the human A1 receptor were incubated with a compound of the invention at concentrations ranging from 3000 nM to 0.15 nM in a reaction mixture containing also 0.7 nM of a tritiated form of 8-Cyclopentyl-1,3-dipropylxanthine (the tritiated compound) and 25 μg of wheat germ agglutin-coated yttrium silicate SPA beads for one hour at room temperature with agitation. The beads were then allowed to settle to the bottom of the wells for 1 hr, after which the membrane-associated radioactivity was determined by scintillation counting in a TopCount microplate reader. Ki values were determined in a similar fashion described with A2a binding.
• Cells expressing the human, rat, dog or monkey adenosine 1 receptor (Purchased from Perkin-Elmer # ES-010-M400UA • [^3H]DPCPX (purchased from Perkin-Elmer NET-974, 8-cyclopentyl-1,3-dipropylxanthine, [dipropyl-2,3-^3H(N)]. • Wheatgerm agglutinin-coated yttrium silicate SPA beads (Purchased from GE Healthcare #RPNQ0023). Dilute to 25 mg/ml in assay buffer. Store at 4° C. • Assay Buffer—Dulbecco's phosphate buffered saline without calcium and without magnesium+10 mM MgCl2 • Adenosine deaminase from calf intestine, 10 mg/2 ml (Roche #10 102 105 001). • DMSO • DPCPX (A1 antagonist) from Tocris Bioscience Compound Dilution • Dilute compounds to 1 mM in 100% DMSO
Make serial dilutions as necessary (i.e., 1:10, 1:3) in 100% DMSO.
Dilute 1:20 into assay buffer (i.e. 3 ul into 57 ul buffer). This is a 5× solution in 5% DMSO.
• Dilute [^3H]DPCPX to 1.75 nM in assay buffer. This is a 2.5× solution. The final concentration in the assay is 0.7 nM. Calculate the concentration by counting two 5 ul aliquots. Membrane Preparation • Use 5 ug of membrane/well. Dilute membranes to 250 ug/ml in assay buffer. Treat with 20 ug/ml adenosine deaminase (ADA) for 15 minutes at room temperature to degrade endogenous adenosine. Membrane-Bead Mixture • Use 25 ug/well wheatgerm agglutinin-coated yttrium silicate SPA beads • Mix ADA-treated membranes and SPA beads together for 30 min prior to assay. Assay Assembly • Add in order to a Perkin-Elmer Optiplate-384: 10 ul of 5× compound, 20 ul of 2.5× [^3H]DPCPX, 20 ul membrane-bead mixture. Incubate for one hour at room temperature with agitation. • Include total binding (assay buffer+1% DMSO) and non-specific binding (DPCPX, 1 uM) wells. Counting and Calculations

human A2a receptor = human A2a receptor (Homo sapiens (Human), UniProt P29274); test: A2a competition binding assay using Scintillation Proximity technology
Protocol: as §1, with “human A2a” for “human A1”, “Thus, 1* μg, or preferably 0.25 μg” for “Thus, 5”, “from HEK293” for “from CHO-K1”, “also 0.5” for “also 0.7”, “of 5-amino-7-[2-phenethyl]-2-(furan-2-yl)-7H-pyrazolo[4,3-e][1,2,4]triazolo[1,5-c]pyrimidine” for “of 8-Cyclopentyl-1,3-dipropylxanthine”, “determined using the Cheng-Prusoff equation.” for “determined in a similar fashion described with A2a binding.”
HEK293 cells expressing the human, rat, dog or monkey adenosine 2a receptor (Purchased from Perkin-Elmer # RBHA2AM400UA).
The Tritiated compound was prepared in-house by MRL Radiochemistry according to published methods.
Wheat germ agglutinin-coated yttrium silicate SPA beads (GE Healthcare #RPNQ0023). Dilute to 25 mg/ml in assay buffer.
Assay Buffer was prepared in house: Dulbecco's calcium and magnesium free phosphate buffered saline+10 mM MgCl2
Adenosine deaminase from calf intestine, 10 mg/2 ml (Roche #10 102 105 001).
A2a antagonist standard (9-chloro-1-(2-furanyl)-[1,2,4]triazolo1,5-c]quinazolin-5-amine from Tocris Bioscience)
Make eight 1:3 serial dilutions in 100% DMSO from a 3 mM compound stock
Transfer 50 nl of compound into a 384-well OptiPlate (Perkin Elmer).
Typically, final concentrations of compound used in the assay ranged from 3000 nM to 0.152 nM.
Dilute a solution of the Tritiated compound to 1.25 nM in assay buffer. This is a 2.5× solution. The final concentration in the assay is 0.5 nM. Calculate the concentration by counting two 5 μl aliquots.
Use *1 ug or preferrably 0.25 ug of membrane/well. Dilute membranes to 9.7 μg/ml in assay buffer. Treat with 20 ug/ml adenosine deaminase (ADA) for 15 minutes at room temperature to degrade endogenous adenosine.
Use 25 μg/well wheat germ agglutinin-coated yttrium silicate SPA beads.
Mix ADA-treated membranes and SPA beads together for 30 min prior to assay.
To the Perkin-Elmer Optiplate-384 containing the compound titration add 20 μl of 2.5× solution of the Tritiated compound and 30 μl of the membrane-bead mixture. Incubate for one hour at room temperature with agitation.
Include total binding (assay buffer+1% DMSO) and non-specific binding (CGS15943, 1 μM) wells.
Allow the beads to settle for one hour.
A curve fitting program (i.e., Prism, Activity Base, Chemcart) is used to determine the EC50. The Ki value is calculated using the Cheng-Prusoff equation. Ki=EC50/(1+(radioligand concentration/Kd))
Using the foregoing assay method, the Ki results were obtained using the compounds of the invention described in Tables IIIa, IIIb, and IV. Each example compound tested is reported in the following format: Example number: A2a Ki reported in nM. Thus, for example, the compound Ex-1 was determined to have an Ki using the above-described assay and calculations, of 10.0 nM.

[1] = 0.25 μg of membranes from HEK293 cells expressing the human A2a receptor
[2] = * assay run with 1 μg of membranes versus 0.25 μg, HEK293 cells expressing the human A2a receptor

Sequence of human A1 receptor (P30542 whole entry): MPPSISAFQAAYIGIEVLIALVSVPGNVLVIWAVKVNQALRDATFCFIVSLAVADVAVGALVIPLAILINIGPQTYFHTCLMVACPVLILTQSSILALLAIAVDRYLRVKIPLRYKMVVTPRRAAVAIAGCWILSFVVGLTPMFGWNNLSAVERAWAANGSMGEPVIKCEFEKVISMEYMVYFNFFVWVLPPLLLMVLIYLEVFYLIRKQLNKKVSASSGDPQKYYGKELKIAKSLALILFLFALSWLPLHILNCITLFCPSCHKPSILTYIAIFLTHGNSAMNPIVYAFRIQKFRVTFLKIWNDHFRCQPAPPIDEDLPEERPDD
Sequence of human A2a receptor (P29274 whole entry): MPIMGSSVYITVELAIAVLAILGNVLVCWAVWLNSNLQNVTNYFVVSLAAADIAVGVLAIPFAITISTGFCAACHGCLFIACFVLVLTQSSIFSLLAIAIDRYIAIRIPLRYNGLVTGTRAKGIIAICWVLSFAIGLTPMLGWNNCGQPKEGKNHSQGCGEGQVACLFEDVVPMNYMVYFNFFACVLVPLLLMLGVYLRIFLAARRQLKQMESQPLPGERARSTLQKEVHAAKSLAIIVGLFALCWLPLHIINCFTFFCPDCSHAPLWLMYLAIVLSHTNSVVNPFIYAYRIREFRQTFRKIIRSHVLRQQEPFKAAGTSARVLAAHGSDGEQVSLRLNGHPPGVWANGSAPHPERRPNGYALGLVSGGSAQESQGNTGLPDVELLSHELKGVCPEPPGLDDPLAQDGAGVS

| Structure (SMILES) | A2a selectivity (A2a A1 binding selectivity) (human A1 receptor) | Ki (human A2a receptor; [1]) [nM] | Ki (human A2a receptor; [2]) [nM] |
| --- | --- | --- | --- |
| Nc1nc(C(=O)NCc2cc(C3CC3)on2)c2cccc(F)c2n1 [Example 83, 2-amino-N-[(5-cyclopropylisoxazol-3-yl)methyl]-8-fluoro-quinazoline-4-carboxamide] | 3 | 14 |  |
| [2H]C([2H])(NC(=O)c1nc(N)nc2c(F)cccc12)c1cccc(Oc2ccc(OCCOC)cc2)n1 [Example 59, 2-amino-N-[dideuterio-[6-[4-(2-methoxyethoxy)phenoxy]-2-pyridyl]methyl]-8-fluoro-quinazoline-4-carboxamide] | 32 |  | 3.7 |
| Nc1nc(C(=O)NCc2cccc3c2OCCN3)c2cccc(F)c2n1 [Example 84, 2-amino-N-(3,4-dihydro-2H-1,4-benzoxazin-8-ylmethyl)-8-fluoro-quinazoline-4-carboxamide] | 25 | 5.3 |  |
| COc1cccc2c(C(=O)N[C@@H](CO)c3ccccc3)nc(N)nc12 [Example 36, 2-amino-N-[(1R)-2-hydroxy-1-phenyl-ethyl]-8-methoxy-quinazoline-4-carboxamide] | 114 | 2.6 |  |
| COc1cccc2c(C(=O)NCc3cccc(C4(O)CCC4)n3)nc(N)nc12 [Example 4, 2-amino-N-[[6-(1-hydroxycyclobutyl)-2-pyridyl]methyl]-8-methoxy-quinazoline-4-carboxamide] | 314 | 0.6 |  |
| COc1cccc2c(C(=O)NCc3cccc(COc4ccc(F)cc4)n3)nc(N)nc12 [Example 45, 2-amino-N-[[6-[(4-fluorophenoxy)methyl]-2-pyridyl]methyl]-8-methoxy-quinazoline-4-carboxamide] | 230 | 0.3 |  |
| COc1cccc2c(C(=O)N[C@@H]3CCc4ccccc43)nc(N)nc12 [Example 33, 2-amino-N-[(1R)-indan-1-yl]-8-methoxy-quinazoline-4-carboxamide] | 60 | 5.3 |  |
| Nc1nc(C(=O)NCc2cccc(-c3cnco3)n2)c2cccc(F)c2n1 [Example 70, 2-amino-8-fluoro-N-[(6-oxazol-5-yl-2-pyridyl)methyl]quinazoline-4-carboxamide] | 19 | 4.5 |  |
| CS(=O)(=O)c1cccc2c(C(=O)NCc3cccc4cccnc34)nc(N)nc12 [Example 95, 2-amino-8-methylsulfonyl-N-(8-quinolylmethyl)quinazoline-4-carboxamide] | 55 | 86 |  |
| Nc1nc(C(=O)NCc2cccc(C(F)F)n2)c2cccc(F)c2n1 [Example 71, 2-amino-N-[[6-(difluoromethyl)-2-pyridyl]methyl]-8-fluoro-quinazoline-4-carboxamide] | 60 | 3.6 |  |
| COc1cccc2c(C(=O)NCc3cccc(COc4ccccc4F)n3)nc(N)nc12 [Example 44, 2-amino-N-[[6-[(2-fluorophenoxy)methyl]-2-pyridyl]methyl]-8-methoxy-quinazoline-4-carboxamide] | 531 | 0.2 |  |
| Nc1nc(C(=O)NCc2nccc3ccccc23)c2cccc(F)c2n1 [Example 89, 2-amino-8-fluoro-N-(isoquinolin-1-ylmethyl)quinazoline-4-carboxamide] | 13 |  | 6.6 |
| Nc1nc(C(=O)NCC2CC3CCC2C3)c2cccc(F)c2n1 (stereo not drawn) [Example 87, 2-amino-8-fluoro-N-(norbornan-2-ylmethyl)quinazoline-4-carboxamide] | 3 |  | 32 |
| COc1ccc(C)c(CNC(=O)c2nc(N)nc3c(F)cccc23)n1 [Example 77, 2-amino-8-fluoro-N-[(6-methoxy-3-methyl-2-pyridyl)methyl]quinazoline-4-carboxamide] | 62 | 0.8 |  |
| COc1cccc2c(C(=O)NCc3cccc(COCC(C)C)n3)nc(N)nc12 [Example 51, 2-amino-N-[[6-(isobutoxymethyl)-2-pyridyl]methyl]-8-methoxy-quinazoline-4-carboxamide] | 90 | 1.9 |  |
| COc1cccc2c(C(=O)NCc3cccc(C(C)(C)O)n3)nc(N)nc12 [Example 9, 2-amino-N-[[6-(1-hydroxy-1-methyl-ethyl)-2-pyridyl]methyl]-8-methoxy-quinazoline-4-carboxamide] | 764 | 0.4 |  |
| Nc1nc(C(=O)NCc2cccc3cccnc23)c2cccc(-c3cncnc3)c2n1 [Example 97, 2-amino-8-pyrimidin-5-yl-N-(8-quinolylmethyl)quinazoline-4-carboxamide] | 1 | 291 |  |
| COc1cccc2c(C(=O)NCc3cccc(CSc4ccc(F)cc4)n3)nc(N)nc12 [Example 55, 2-amino-N-[[6-[(4-fluorophenyl)sulfanyl-methyl]-2-pyridyl]methyl]-8-methoxy-quinazoline-4-carboxamide] | 36 |  | 3.2 |
| COc1cccc2c(C(=O)NCc3cccc(C)n3)nc(N)nc12 [Example 15, 2-amino-8-methoxy-N-[(6-methyl-2-pyridyl)methyl]quinazoline-4-carboxamide] | 319 | 0.5 |  |
| COc1cccc2c(C(=O)N[C@@H](CO)c3ccc4ccccc4n3)nc(N)nc12 [Example 37, 2-amino-N-[(1R)-2-hydroxy-1-(2-quinolyl)ethyl]-8-methoxy-quinazoline-4-carboxamide] | 32 | 8.3 |  |
| [2H]C([2H])(NC(=O)c1nc(N)nc2c(OC)cccc12)c1cccc(C([2H])([2H])c2cncc(OCCOC)c2)n1 [Example 107, 2-amino-N-[dideuterio-[6-[dideuterio-[5-(2-methoxyethoxy)-3-pyridyl]methyl]-2-pyridyl]methyl]-8-methoxy-quinazoline-4-carboxamide] | 95 | 2 |  |
